Data from PMC8058163 (Clinical pharmacology and therapeutics, 2020).
Where two headings read alike, the source gives them in different places.

Tests used:
clinical = settings: both, human, in vivo

Row | Compound | AUC(0-inf) (clinical) | AUC(0-t) (clinical) | CL renal (clinical) | Cmax (clinical) | AUC(0-inf) (clinical; po) | AUC(0-t) (clinical; po) | CL renal (clinical; po) | Cmax (clinical; po) | increase of geometric mean Cmax (in the presence of goldenseal) | increase of systemic exposure (in the presence of goldenseal) | half-life (clinical; po) | AUC0–24, goldenseal exposure / baseline ratio (both, human, in vivo) | ClR, goldenseal exposure / baseline ratio (both, human, in vivo) | Cmax, goldenseal exposure / baseline ratio (both, human, in vivo) | AUC0–72 (human, in vivo) | Cmax (human, in vivo) | AUC0–72 (human, in vivo, po) | Cmax (human, in vivo, po)
1 | CN(C)C(=N)N=C(N)N [Metformin, metformin] | 3.8 µM·h | 3.6 µM·h | 700 mL/min | 540 nM | 5 µM·h | 4.7 µM·h | 683 mL/min | 750 nM | – | – | – | – | – | – | – | – | – | –
2 | Cc1ncc2n1-c1ccc(Cl)cc1C(c1ccccc1F)=NC2 [Midazolam, midazolam] | 0.096 µM·h | 0.086 µM·h | 1.17 mL/min | – | 0.067 µM·h | 0.062 µM·h | 0.833 mL/min | 26 nM | 31% | ~ 40% | 234 min | – | – | – | – | – | – | –
3 | CC(C)c1nc(N(C)S(C)(=O)=O)nc(-c2ccc(F)cc2)c1/C=C/[C@@H](O)C[C@@H](O)CC(=O)O [Rosuvastatin acid, rosuvastatin] | – | 0.06 µM·h | 247 mL/min | 7.9 nM | – | 0.059 µM·h | 257 mL/min | 7.4 nM | – | – | – | 1.01 [0.91–1.13] | 0.96 [0.89–1.03] | 1.08 [0.94–1.22] | – | – | – | –
4 | CC(C)c1nc(N(C)S(C)(=O)=O)nc(-c2ccc(F)cc2)c1/C=C/[C@@H]1C[C@@H](O)CC(=O)O1 [Rosuvastatin lactone, rosuvastatin lactone] | – | – | – | – | – | – | – | – | – | – | – | – | – | – | 27 [23–32] nM*h | 1.5 nM | 28 [24–32] nM*h | 1.5 nM
